Measured values published in patent US11078216B2, “Bisaryl amides as NRF2 activators” (GLAXOSMITHKLINE INTELLECTUAL PROPERTY DEVELOPMENT LIMITED, priority 2016, dated 2021).

System: NRF2 (NQO1 activity as marker for NRF2 activation), BEAS-2B cells
Assay: BEAS-2B NQO1 MTT Assay
Assay type: cell-based
Conditions: Homo sapiens, EC50 of NQO1 specific activity induction, 48 hours incubation, read-out: EC50
How it was run: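 BEAS-2B cells were exposed to compound for 48 h at 37° C, 5% CO2, then lysed. NQO1 activity was measured kinetically by MTT reduction at 570 nm over 30 minutes; EC50 came from 3-parameter fit of Delta OD/min versus log concentration.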

Row | SMILES | EC50 [nM]
1 | CC[C@@H]1CN(Cc2cc([C@@H](c3ccc4c(nnn4CC)c3C)C(C)(C)C(N)=O)ccc2C)S(=O)(=O)c2ccccc2O1 [Example 87, (S)-3-(3-(((R)-4-Ethyl-1,1-dioxido-3,4-dihydro-2H-benzo[b][1,4,5]oxathiazepin-2-yl)methyl)-4-methylphenyl)-3-(1-ethyl-4-methyl-1H-benzo[d][1,2,3]triazol-5-yl)-2,2-dimethylpropanamide] | 1 to 10
2 | CC[C@H]1Cc2ccc(C(F)(F)F)cc2S(=O)(=O)N(Cc2cc([C@@H](c3ccc4c(nnn4CC)c3C)C(C)(C)C(N)=O)ccc2C)C1 [Example 88, (S)-3-(3-(((S)-4-ethyl-1,1-dioxido-8-(trifluoromethyl)-4,5-dihydrobenzo[f][1,2]thiazepin-2(3H)-yl)methyl)-4-methylphenyl)-3-(1-ethyl-4-methyl-1H-benzo[d][1,2,3]triazol-5-yl)-2,2-dimethylpropanamide] | 1 to 10
3 | CC[C@@H]1CN(Cc2cc([C@@H](c3ccc4c(nnn4C)c3C)C(C)(C)C(N)=O)ccc2Cl)S(=O)(=O)c2ccccc2O1 [Example 89, (S)-3-(4-chloro-3-(((R)-4-ethyl-1,1-dioxido-3,4-dihydro-2H-benzo[b][1,4,5]oxathiazepin-2-yl)methyl)phenyl)-3-(1,4-dimethyl-1H-benzo[d][1,2,3]triazol-5-yl)-2,2-dimethylpropanamide] | 10 to 100
4 | CC[C@H]1Cc2ccc(C(F)(F)F)cc2S(=O)(=O)N(Cc2cc([C@@H](OCc3cn(CC)nn3)C(C)(C)C(N)=O)ccc2C)C1 [Example 90, (R)-3-(3-(((S)-4-ethyl-1,1-dioxido-8-(trifluoromethyl)-4,5-dihydrobenzo[f][1,2]thiazepin-2(3H)-yl)methyl)-4-methylphenyl)-3-((1-ethyl-1H-1,2,3-triazol-4-yl)methoxy)-2,2-dimethylpropanamide] | 100 to 1000
5 | CC[C@@H]1CN(Cc2cc([C@@H](c3ccc4c(nnn4CC)c3C)C(C)(C)C(=O)Nc3cncnc3)ccc2C)S(=O)(=O)c2ccccc2O1 [Example 91, (S)-3-(3-(((R)-4-Ethyl-1,1-dioxido-3,4-dihydro-2H-benzo[b][1,4,5]oxathiazepin-2-yl)methyl)-4-methylphenyl)-3-(1-ethyl-4-methyl-1H-benzo[d][1,2,3]triazol-5-yl)-2,2-dimethyl-N-(pyrimidin-5-yl)propanamide] | 1 to 10
6 | CC[C@H]1Cc2ccc(C(F)(F)F)cc2S(=O)(=O)N(Cc2cc([C@@H](c3ccc4c(nnn4CC)c3C)C(C)(C)C(=O)Nc3cncnc3)ccc2C)C1 [Example 92, (S)-3-(3-(((S)-4-Ethyl-1,1-dioxido-8-(trifluoromethyl)-4,5-dihydrobenzo[f][1,2]thiazepin-2(3H)-yl)methyl)-4-methylphenyl)-3-(1-ethyl-4-methyl-1H-benzo[d][1,2,3]triazol-5-yl)-2,2-dimethyl-N-(pyrimidin-5-yl)propanamide] | 1 to 10
7 | CC[C@H]1Cc2ccccc2S(=O)(=O)N(Cc2cc([C@@H](c3ccc4c(nnn4CC)c3C)C(C)(C)C(=O)Nc3cncnc3)ccc2C)C1 [Example 93, (S)-3-(3-(((S)-4-Ethyl-1,1-dioxido-4,5-dihydrobenzo[f][1,2]thiazepin-2(3H)-yl)methyl)-4-methylphenyl)-3-(1-ethyl-4-methyl-1H-benzo[d][1,2,3]triazol-5-yl)-2,2-dimethyl-N-(pyrimidin-5-yl)propanamide] | 1 to 10
8 | CCn1nnc2c(C)c([C@H](c3ccc(C)c(CN4C[C@@H](C)Cc5cc(C(F)(F)F)ccc5S4(=O)=O)c3)C(C)(C)C(=O)Nc3cncnc3)ccc21 [Example 94, (S)-3-(1-Ethyl-4-methyl-1H-benzo[d][1,2,3]triazol-5-yl)-2,2-dimethyl-3-(4-methyl-3-(((S)-4-methyl-1,1-dioxido-7-(trifluoromethyl)-4,5-dihydrobenzo[f][1,2]thiazepin-2(3H)-yl)methyl)phenyl)-N-(pyrimidin-5-yl)propanamide] | 1 to 10
9 | CC[C@H]1Cc2ncccc2S(=O)(=O)N(Cc2cc([C@@H](c3ccc4c(nnn4CC)c3C)C(C)(C)C(=O)Nc3cncnc3)ccc2C)C1 [Example 95, (S)-3-(3-(((S)-4-Ethyl-1,1-dioxido-4,5-dihydropyrido[2,3-f][1,2]thiazepin-2(3H)-yl)methyl)-4-methylphenyl)-3-(1-ethyl-4-methyl-1H-benzo[d][1,2,3]triazol-5-yl)-2,2-dimethyl-N-(pyrimidin-5-yl)propanamide] | 1 to 10
10 | CC[C@@H]1CN(Cc2cc([C@@H](c3ccc4c(nnn4CC)c3C)C(C)(C)C(=O)Nc3cncnc3)ccc2C)S(=O)(=O)c2cnccc2O1 [Example 96, (S)-3-(3-(((R)-4-Ethyl-1,1-dioxido-3,4-dihydro-2H-pyrido[4,3-b][1,4,5]oxathiazepin-2-yl)methyl)-4-methylphenyl)-3-(1-ethyl-4-methyl-1H-benzo[d][1,2,3]triazol-5-yl)-2,2-dimethyl-N-(pyrimidin-5-yl)propanamide] | 1 to 10
11 | CC[C@@H]1CN(Cc2cc([C@@H](c3ccc4c(nnn4CC)c3C)C(C)(C)C(=O)Nc3cncnc3)ccc2C)S(=O)(=O)c2ccc(Br)cc2O1 [Example 97, (S)-3-(3-(((R)-7-Bromo-4-ethyl-1,1-dioxido-3,4-dihydro-2H-benzo[b][1,4,5]oxathi-azepin-2-yl)methyl)-4-methylphenyl)-3-(1-ethyl-4-methyl-1H-benzo[d][1,2,3]triazol-5-yl)-2,2-dimethyl-N-(pyrimidin-5-yl)propanamide] | 1 to 10
12 | CC[C@@H]1CN(Cc2cc([C@@H](c3ccc4c(nnn4CC)c3C)C(C)(C)C(=O)Nc3cncnc3)ccc2C)S(=O)(=O)c2cc(Br)ccc2O1 [Example 98, (S)-3-(3-(((R)-8-Bromo-4-ethyl-1,1-dioxido-3,4-dihydro-2H-benzo[b][1,4,5]oxathi-azepin-2-yl)methyl)-4-methylphenyl)-3-(1-ethyl-4-methyl-1H-benzo[d][1,2,3]triazol-5-yl)-2,2-dimethyl-N-(pyrimidin-5-yl)propanamide] | 1 to 10
13 | CC[C@@H]1CN(Cc2cc([C@@H](c3ccc4c(nnn4CC)c3C)C(C)(C)NC(N)=O)ccc2C)S(=O)(=O)c2ccccc2O1 [Example 99, 1-((S)-1-(3-(((R)-4-ethyl-1,1-dioxido-3,4-dihydro-2H-benzo[b][1,4,5]oxathiazepin-2-yl)methyl)-4-methylphenyl)-1-(1-ethyl-4-methyl-1H-benzo[d][1,2,3]triazol-5-yl)-2-methylpropan-2-yl)urea] | 100 to 1000
14 | CC[C@@H]1CN(Cc2cc([C@@H](c3ccc4c(nnn4C)c3C)C(C)(C)C(=O)NC3CCOC3)ccc2C)Cc2cnccc2O1 (stereo partly drawn) [Example 100, (3S)-3-(1,4-Dimethyl-1H-benzo[d][1,2,3]triazol-5-yl)-3-(3-(((R)-2-ethyl-2,3-dihydropyrido[3,44][1,4]oxazepin-4(5H)-yl)methyl)-4-methylphenyl)-2,2-dimethyl-N-(tetrahydrofuran-3-yl)propanamide] | 100 to 1000
15 | CC[C@@H]1CN(Cc2cc([C@@H](c3ccc4c(nnn4C)c3C)C(C)(C)C(=O)NC3CCS(=O)(=O)C3)ccc2C)Cc2cnccc2O1 (stereo partly drawn) [Example 101, (3S)-3-(1,4-Dimethyl-1H-benzo[d][1,2,3]triazol-5-yl)-N-(1,1-dioxidotetrahydrothio-phen-3-yl)-3-(3-(((R)-2-ethyl-2,3-dihydropyrido[3,4-f][1,4]oxazepin-4(5H)-yl)methyl)-4-methylphenyl)-2,2-dimethylpropanamide] | 10 to 100
16 | CC[C@@H]1CN(Cc2cc([C@@H](c3ccc4c(nnn4CC)c3C)C(C)(C)C(=O)NCCNC)ccc2C)S(=O)(=O)c2cccnc2O1 [Example 102, (S)-3-(3-(((R)-4-Ethyl-1,1-dioxido-3,4-dihydro-2H-pyrido[2,3-b][1,4,5]oxathiazepin-2-yl)methyl)-4-methylphenyl)-3-(1-ethyl-4-methyl-1H-benzo[d][1,2,3]triazol-5-yl)-2,2-dimethyl-N-(2-(methylamino)ethyl) propanamide] | 10 to 100
17 | CC[C@H]1Cc2ncccc2S(=O)(=O)N(Cc2cc([C@H](CC(=O)Nc3cccnc3)c3ccc4c(nnn4CC)c3C)ccc2C)C1 [Example 103, (S)-3-(3-(((S)-4-Ethyl-1,1-dioxido-4,5-dihydropyrido[2,3-f][1,2]thiazepin-2(3H)-yl)methyl)-4-methylphenyl)-3-(1-ethyl-4-methyl-1H-benzo[d][1,2,3]triazol-5-yl)-N-(pyridin-3-yl)propanamide] | 10 to 100
18 | CC[C@@H]1CN(Cc2cc([C@@H](c3ccc4c(nnn4CC)c3C)C(C)(C)C(=O)NCc3ncc[nH]3)ccc2C)S(=O)(=O)c2cccnc2O1 [Example 104, (S)-N-((1H-Imidazol-2-yl)methyl)-3-(3-(((R)-4-ethyl-1,1-dioxido-3,4-dihydro-2H-pyrido[2,3-b][1,4,5]oxathiazepin-2-yl)methyl)-4-methylphenyl)-3-(1-ethyl-4-methyl-1H-benzo[d][1,2,3]triazol-5-yl)-2,2-dimethylpropanamide] | 100 to 1000
19 | CC[C@H]1Cc2ncccc2S(=O)(=O)N(Cc2cc([C@H](CC(=O)Nc3cncnc3)c3ccc4c(nnn4CC)c3C)ccc2C)C1 [Example 105, (S)-3-(3-(((S)-4-Ethyl-1,1-dioxido-4,5-dihydropyrido[2,3-f][1,2]thiazepin-2(3H)-yl)methyl)-4-methylphenyl)-3-(1-ethyl-4-methyl-1H-benzo[d][1,2,3]triazol-5-yl)-N-(pyrimidin-5-yl)propanamide] | 10 to 100
20 | CC[C@@H]1CN(Cc2cc([C@@H](c3ccc4c(nnn4CC)c3C)C(C)(C)C(=O)NC3CCS(=O)(=O)C3)ccc2C)S(=O)(=O)c2cccnc2O1 (stereo partly drawn) [Example 106, (3S)-N-(1,1-Dioxidotetrahydrothio-phen-3-yl)-3-(3-(((R)-4-ethyl-1,1-dioxido-3,4-dihydro-2H-pyrido[2,3-b][1,4,5]oxathiazepin-2-yl)methyl)-4-methylphenyl)-3-(1-ethyl-4-methyl-1H-benzo[d][1,2,3]triazol-5-yl)-2,2-dimethylpropanamide] | 100 to 1000
